The experiment has as its system Vaccinia virus Elstree strain. It counts as cell-based.

`C=O` [formaldehyde]: the “Reference trial inactivation of the virus” value came to 3.13E+00 log DIT C50.

The values are drawn from patent US20240148627A1, “[…] FOR THE SKIN” (priority 2021, published 2024).
